Reference: US7932283B2, “Fungicide N-cyclopropyl-sulfonylamide derivatives” (Bayer Cropscience AG, priority 2006, dated 2011)

Assay: logP by HPLC on reversed-phase column (C 18), EEC Directive 79/B31 Annex V.A8, methods A and B
Format: physicochemical
Settings: reversed-phase HPLC column (C 18), linear gradient 10% to 90% acetonitrile
Description: Calibration was carried out using unbranched alkan-2-ones (having 3 to 16 carbon atoms) with known logP values (determination of the logP values by the retention times using linear interpolation between two successive alkanones).

[1] = LogP method B: HPLC reversed-phase C 18, 40° C., 0.1% aqueous formic acid / acetonitrile
[2] = LogP method A: HPLC reversed-phase C 18, 43° C., 0.1% aqueous phosphoric acid / acetonitrile
[3] = HPLC reversed-phase C 18, method A: 43° C., 0.1% aqueous phosphoric acid, acetonitrile
[4] = HPLC reversed-phase C 18, method B: 40° C., 0.1% aqueous formic acid and acetonitrile

| chromatographic logP [2] | chromatographic logP [4] | SMILES | also measured |
| --- | --- | --- | --- |
| – | – | CCOc1nn(C)cc1C(=O)N(C1CC1)S(=O)(=O)c1ccc(Oc2ccc(Br)cc2)cc1Br [Compound 541] | chromatographic logP [1]: 4.2 |
| – | – | COc1nn(C)cc1C(=O)N(C1CC1)S(=O)(=O)c1ccc(Oc2ccc(Br)cc2)cc1Br [Compound 474] | chromatographic logP [1]: 3.9 |
| 2.24 | – | COC(=O)c1csc(C)c1S(=O)(=O)N(C(=O)c1c(C)nn(C)c1F)C1CC1 [Compound 434] | – |
| – | – | Cc1ncc(C(=O)N(C2CC2)S(=O)(=O)c2cccc(O)c2)s1 [Compound 60] | chromatographic logP [3]: 2.8 |
| – | – | COc1nn(C)cc1C(=O)N(C1CC1)S(=O)(=O)c1ccc(Oc2ccc(O)c(O)c2)cc1Br [Compound 478] | chromatographic logP [1]: 4.2 |
| – | 3.6 | Cc1nn(C)c(Oc2ccc(O)cc2)c1C(=O)N(C1CC1)S(=O)(=O)c1ccccc1O [Compound 261] | – |
| 2.5 | – | Cc1n[nH]c(C)c1C(=O)N(C1CC1)S(=O)(=O)c1ccc(C(F)(F)F)cc1 [Compound 402] | – |
| – | – | CCOc1nn(C)cc1C(=O)N(C1CC1)S(=O)(=O)c1ccc(Oc2ccccc2O)c(O)c1 [Compound 537] | chromatographic logP [1]: 4.1 |
| 2.91 | – | O=C(c1cccnc1Cl)N(C1CC1)S(=O)(=O)c1cccc(O)c1 [Compound 643] | – |
| 4.56 | – | Cc1nn(C)c(Oc2cccc(Cl)c2)c1C(=O)N(C1CC1)S(=O)(=O)c1ccc(O)c(C(F)(F)F)c1 [Compound 404] | – |
| – | 3.6 | CC(C)c1nn(C)c(F)c1C(=O)N(C1CC1)S(=O)(=O)c1cccc(O)c1O [Compound 93] | – |
| – | 4.3 | O=C(c1ccsc1I)N(C1CC1)S(=O)(=O)c1ccc(Oc2ccccc2)cc1 [Compound 21] | – |
| – | 4.9 | CCCOc1nn(C)cc1C(=O)N(C1CC1)S(=O)(=O)c1ccc(Oc2ccc(O)c(C(F)(F)F)c2)cc1Br [Compound 302] | – |
| 3.37 | – | Cc1nn(C)c(C)c1C(=O)N(C1CC1)S(=O)(=O)c1ccc(O)c(C(F)(F)F)c1 [Compound 411] | – |
| – | 3.1 | Cn1nc(C(F)(F)F)c(C(=O)N(C2CC2)S(=O)(=O)c2c(O)cccc2O)c1F [Compound 360] | – |
| – | – | Cc1oncc1C(=O)N(C1CC1)S(=O)(=O)c1cccc(O)c1O [Compound 603] | chromatographic logP [1]: 2.2 |
| – | 4.2 | CCc1nn(C)c(F)c1C(=O)N(C1CC1)S(=O)(=O)c1ccc(Oc2cccc(C(F)(F)F)c2)cc1 [Compound 388] | – |
| – | 3.7 | Cn1nc(-c2ccccc2)c(C(=O)N(C2CC2)S(=O)(=O)c2cccc(O)c2O)c1F [Compound 101] | – |
| 3.01 | – | Cc1c(C(=O)N(C2CC2)S(=O)(=O)c2ccc(C(C)(C)C)cc2)sc(=O)n1Cc1ccccc1 [Compound 628] | – |
| – | 4.7 | Cn1nc(C2CC2)c(C(=O)N(C2CC2)S(=O)(=O)c2cccc(O)c2O)c1Cl [Compound 225] | – |
| 3.72 | – | Cc1noc(C)c1C(=O)N(C1CC1)S(=O)(=O)c1ccc(O)c(O)c1 [Compound 591] | – |
| – | – | Cc1nn(C)c(F)c1C(=O)N(C1CC1)S(=O)(=O)c1cc(O)cc(O)c1 [Compound 193] | chromatographic logP [3]: 3.48 |
| 4.13 | – | Cc1nn(C)c(Oc2cccc(Cl)c2)c1C(=O)N(C1CC1)S(=O)(=O)c1ccc(C(F)(F)F)cc1 [Compound 400] | – |
| – | 4.5 | CCCOc1nn(C)cc1C(=O)N(C1CC1)S(=O)(=O)c1ccc(Oc2ccc(F)c(O)c2)cc1Br [Compound 294] | – |
| – | 2.9 | Cn1cc(C(=O)N(C2CC2)S(=O)(=O)c2cccc(O)c2O)c(C(F)F)n1 [Compound 221] | – |
| 3 | – | Cc1n[nH]c(C)c1C(=O)N(C1CC1)S(=O)(=O)c1ccc(O)c(C(F)(F)F)c1 [Compound 408] | – |
| – | – | COc1nn(C)cc1C(=O)N(C1CC1)S(=O)(=O)c1ccc(F)cc1Br [Compound 459] | chromatographic logP [1]: 2.2 |
| 3.94 | – | Cc1nn(C)c(Oc2cccc(O)c2)c1C(=O)N(C1CC1)S(=O)(=O)c1cccc(O)c1 [Compound 399] | – |
| – | – | COc1ccc(Oc2ccc(S(=O)(=O)N(C(=O)c3cn(C)nc3OC)C3CC3)c(Br)c2)cc1OC [Compound 462] | chromatographic logP [1]: 2.9 |
| – | – | Cc1ccsc1C(=O)N(C1CC1)S(=O)(=O)c1ccccc1O [Compound 14] | chromatographic logP [3]: 3.12 |
